Test results published in US5112805A, “Pharmaceutical preparation for promoting epithelial healing and prevention of epithelial destruction” (Labsystems, Oy, priority 1989, dated 1992).
“Also recorded” adds a separate entry of the source.

Legend:
corneal lesions = experiment: Topical treatment of patients with corneal lesions, clinical response; type: in vivo, human; details: for clinical effect: used at first in patients 1, 3 and 4; for therapeutic effect: patient with bilateral acid corrosion
Experimental: Patients and control individuals. All patients reported here were treated in the Eye Clinic of the Helsinki Central University Hospital.
(§1) Proteinase inhibitor and fibronectin treatment. The patients received topical aprotinin (20 or 40 IU/ml), diluted from the stock preparation in sterile saline or commercially obtained wetting agent (Liquifilm Tears; Allergan), 1-2 drops (50 ul each) at 3 hour intervals. When applied, fibronectin (200 ug/ml) was administered 2-3 minutes after aprotinin treatment, also using 1-2 drops at a time.
After the success with this index case and similar experience with the first few additional patients the following therapeutic regimen was adopted. Patients with corneal ulcers were first treated for four days with conventional therapy including antimicrobial drugs according to laboratory findings or clinical picture. If no response was seen and if proteolytic activity was detected in the tear fluid, aprotinin therapy was initiated. In some cases with low activity in the initial or later tear fluid specimens, aprotinin was combined with topical fibronectin. In addition, in certain patients, such as in a patient with bilateral acid corrosion, no proteolytic activity was detected immediately after injury. […] In zymographic analysis the proteinase in the patient's tear fluid specimen comigrated with plasmin (data not shown). […] This patient will be described in detail elsewhere. However, a large proportion of patients with therapy-resistant corneal lesions of various categories (Table 2) had proteolytic activity and the above regimen was followed.

[1] = tested on: proteolytic plasmin-like activity in tear fluid; experiment: Radial caseinolysis assay of tear fluid proteolytic activity with inhibitors added; type: biochemical, human
Experimental: (§2) Assay of proteolytic activity in tear fluids. Tear fluid was collected into a glass capillary. Proteolytic activity, using an 8 ul specimen of tear fluid, was measured by the radial caseinolysis procedure^23, using agarose gel and bovine milk casein as substrate. Human plasmin (20 casein units per mg; Kabi Diagnostica, Stockholm, Sweden) was used as standard. The results are expressed as micrograms of plasmin-like activity per milliliter tear fluid. Plasminogen activator levels were determined according to Saksela^23 using plasminogen-containing casein-agarose gels and urokinase (50 000 Plough units/ml; Calbiochem) as standard.
Proteinase inhibitors-Aprotinin (20 000 IU/ml Trasylol®, Bayer), L-cysteine (0.15M; E. Merck), heparin (2500 IU/ml Medica).

epithelium = details: published report on clinical use of fibronectin; cited from earlier work
[2] = tested on: tear fluid plasmin-like activity; experiment: Tear fluid plasmin-like activity of patients during therapy; type: in vivo, human
Experimental: as §2, §1

[3] = Side effects of aprotinin eye drops in patients; type: in vivo, human
Experimental: as §1

[4] = Patient 1 tear fluid (11.6 without inhibitor), aprotinin 20 IU/ml, L-cysteine 0.075 M, heparin 1250 IU/ml
[5] = Patient 2 tear fluid (7.0 without inhibitor), aprotinin 20 IU/ml, L-cysteine 0.075 M, heparin 1250 IU/ml
[6] = Patient 8 tear fluid (6.0 without inhibitor), aprotinin 10 IU/ml, L-cysteine 0.075 M, heparin 1250 IU/ml
[7] = Patient 9 tear fluid (6.3 without inhibitor), aprotinin 10 IU/ml, L-cysteine 0.075 M, heparin 1250 IU/ml
[8] = tear fluid of patients 1, 2, 8 and 9 in vitro
[9] = tear fluids of patients with corneal lesions, in the assay

In the case of heparin, the clinical effect (corneal lesions) is reported as “little or no clinical effect”, the Proteolytic plasmin-like activity [1, 4] is reported as 11.9 µg/mL and the Proteolytic plasmin-like activity [1, 5] is reported as 7.8 µg/mL. For the same molecule, the Proteolytic plasmin-like activity [1, 6] was 7.2 µg/mL, the Proteolytic plasmin-like activity [1, 7] was 6.8 µg/mL and the “effect on the proteolytic activity of tear fluid” value (“effect … of tear fluid” for short) [1, 8] was “very little effect”. The “effect … of tear fluid” value [1, 9] was “no effect”.

For fibronectin, the “appearance of corneal erosion” value (corneal lesions; patient 1, topical fibronectin alone from Oct. 16, one day later) was “altered appearance”, the therapeutic effect (corneal lesions; left eye, fibronectin applied 7 days later, tear fluid with plasmin-like activity) was “no such therapeutic effect was observed” and the therapeutic effect (corneal lesions; right eye, initial topical fibronectin, no proteolytic activity detected) was “clear beneficial effect and epithelial healing”. The “time to healing of the epithelium” value (epithelium) was “about 20 days”.

In the case of aprotinin, the Tearfluid plasmin-like activity ([2]; patient 2, 25 Nov, 7.0 on 1 Nov) is reported as less than 0.1 µg/mL, the Tearfluid plasmin-like activity ([2]; patient 3, 4 Dec, 6.8 on 16 Nov) is reported as less than 0.1 µg/mL and the Tearfluid plasmin-like activity ([2]; patient 4, 20 Dec, 5.5 on 25 Nov) is reported as less than 0.1 µg/mL. For the same molecule, the Tearfluid plasmin-like activity ([2]; patient 7, 10 Jan, 7.6 on 8 Jan, aprotinin 20 IU/ml from Jan 8) was 4.7 µg/mL, the Tearfluid plasmin-like activity ([2]; patient 7, 16 Jan, aprotinin 20 IU/ml from Jan 8) was 12.0 µg/mL and the Tearfluid plasmin-like activity ([2]; patient 7, 20 Jan, aprotinin 20 IU/ml from Jan 8) was 12.5 µg/mL. For the same molecule, the Tearfluid plasmin-like activity ([2]; patient 7, 22 Jan, aprotinin 40 IU/ml hourly from 20 Jan, fibronectin added Jan 22) was 3.3 µg/mL, the Tearfluid plasmin-like activity ([2]; patient 8, 14 Feb) was less than 0.1 µg/mL and the Tearfluid plasmin-like activity ([2]; patient 8, 29 Jan, 6.0 on 6 Jan, 4.5 on 8 Jan during antibiotic therapy) was 0.5 µg/mL. For the same molecule, the Tearfluid plasmin-like activity ([2]; patient 8, 31 Jan) was 0.5 µg/mL, the Tearfluid plasmin-like activity ([2]; patient 9, 13 Feb) was less than 0.1 µg/mL and the Tearfluid plasmin-like activity ([2]; patient 9, 20 Jan, 6.3 on 16 Jan, with topical antibiotics) was 3.0 µg/mL. It also gave a Tearfluid plasmin-like activity ([2]; patient 9, 30 Jan) of less than 0.1 µg/mL, a Tearfluid plasmin-like activity ([2]; patient 10, 22 Jan, 10.3 on 20 Jan) of 2.4 µg/mL and a Tearfluid plasmin-like activity ([2]; patient 10, 24 Jan) of less than 0.1 µg/mL. For the same molecule, the Tearfluid plasmin-like activity ([2]; patient 11, 9 Feb) was less than 0.1 µg/mL, the Tearfluid plasmin-like activity ([2]; patient 11, 30 Jan, 3.1 on 21 Jan) was 1.9 µg/mL and the Tearfluid plasmin-like activity ([2]; patient 12, 6 Feb) was less than 0.1 µg/mL. It also gave a Tearfluid plasmin-like activity ([2]; patient 12, 24 Jan, 20.0 on 22 Jan, with antibiotics) of 12.4 µg/mL, a Tearfluid plasmin-like activity ([2]; patient 13, 3 Feb, 6.3 on 31 Jan, with topical acyclovir, antibiotics) of 0.5 µg/mL and a Tearfluid plasmin-like activity ([2]; patient 13, 19 Feb) of less than 0.1 µg/mL. For the same molecule, the response to therapy (corneal lesions; all fifteen patients with proteolytic activity in tear fluid and corneal lesion, aprotinin, in some cases combined with fibronectin) was “resulted in corneal epithelialization; also recorded: responded quickly”, the time to response (corneal lesions; patient 1, novel therapy (aprotinin with fibronectin), after nine weeks of unsuccessful conventional treatment) was no more than 24 h and the “Recovery in” value (corneal lesions; patient 2, disciform keratitis, recurrent erosion for 1 week) was 4 days. For the same molecule, the clinical response (corneal lesions; patient 3, corneal erosion caused by soft contact lens, proteinase inhibitor therapy) was “improved rapidly”, the “Complete epithelialization in” value (corneal lesions; patient 3, soft contact lens user, recurrent corneal erosion) was 48 h and the clinical response (corneal lesions; patient 4, corneal perforation, soft contact lens and antibiotics together with aprotinin) was “led to healing”. The “duration of corneal healing” value (corneal lesions; patient 4, keratitis sicca, corneal perforation and ulcer) was “six”, the clinical response (corneal lesions; patient 7, Mooren's ulcer, 20 IU/ml, later (20 Jan on) 40 IU/ml hourly) was “successfully treated” and the “ulcer area relative to original area” value (corneal lesions; patient 7, Mooren's ulcer, within a month after onset of aprotinin therapy) was “regressed into a third of its original area”. For the same molecule, the “complete healing in” value (corneal lesions; patient 8, ulcus corneae, S. aureus, after onset of aprotinin) was 12 days, the epithelialization (corneal lesions; patient 9, deep corneal ulcer, topical antibiotics and aprotinin) was “rapid” and the “epithelialization in” value (corneal lesions; patient 10, giant papillary conjunctivitis) was “one”. The “Complete epithelialization in” value (corneal lesions; patient 12, absc. corneae, Moraxella, antibiotics and aprotinin) was 2 weeks, the response to therapy (corneal lesions; patient 13, herpes keratitis, new erosion, with topical acyclovir, antibiotics) was “clear improvement” and the “condition improved in” value (corneal lesions; patient 14, blepharitis chronica) was 1 week. The “condition improved in” value (corneal lesions; patient 15, conjunctivitis vernalis, punctate erosion) was 5 days, the therapeutic effect (corneal lesions; aprotinin therapy after failure of fibronectin) was “rapid epithelization” and the “outcome and complications of longest treatment” value ([3]; aprotinin eye drops, patient 4 (dry eyes, spontaneous perforation), five weeks) was “good results without corneal or other complications”. The side effects ([3]; topical aprotinin therapy, patients) was “No side effects”, the Proteolytic plasmin-like activity [1, 4] was less than 0.1 µg/mL and the Proteolytic plasmin-like activity [1, 5] was less than 0.1 µg/mL. The Proteolytic plasmin-like activity ([1]; Patient 7 tear fluid (7.6 without inhibitor), aprotinin 10 IU/ml) was less than 0.1 µg/mL, the Proteolytic plasmin-like activity [1, 6] was less than 0.1 µg/mL and the Proteolytic plasmin-like activity [1, 7] was less than 0.1 µg/mL. For the same molecule, the Proteolytic plasmin-like activity ([1]; Patient 15 tear fluid (4.2 without inhibitor), aprotinin 10 IU/ml) was less than 0.1 µg/mL, the “effect … of tear fluid” value [1, 9] was “can be inhibited” and the “effect … of tear fluid” value ([1]; tear fluids of patients with corneal lesions, in the assay, listed as Aprotinin) was “inhibit effectively”.

For N[C@@H](CS)C(=O)O [L-cysteine], the “course of cornea during therapy” value (corneal lesions; patient 4, topical L-cysteine therapy, no detectable microbial pathogens) was “perforated spontaneously”, the clinical effect (corneal lesions) was “little or no clinical effect” and the Proteolytic plasmin-like activity [1, 4] was 10.1 µg/mL. The Proteolytic plasmin-like activity [1, 5] was 7.2 µg/mL, the Proteolytic plasmin-like activity [1, 6] was 4.9 µg/mL and the Proteolytic plasmin-like activity [1, 7] was 5.5 µg/mL. The “effect … of tear fluid” value [1, 8] was “very little effect” and the “effect … of tear fluid” value [1, 9] was “minimal inhibitory effect”.
